For the experiment, the target named is T1, RECQL4 (Homo sapiens, UniProt O94761).
T1 construct: RECQL4^449–1111 (lacking the N-terminus)
T1 sequence (O94761 449-1111): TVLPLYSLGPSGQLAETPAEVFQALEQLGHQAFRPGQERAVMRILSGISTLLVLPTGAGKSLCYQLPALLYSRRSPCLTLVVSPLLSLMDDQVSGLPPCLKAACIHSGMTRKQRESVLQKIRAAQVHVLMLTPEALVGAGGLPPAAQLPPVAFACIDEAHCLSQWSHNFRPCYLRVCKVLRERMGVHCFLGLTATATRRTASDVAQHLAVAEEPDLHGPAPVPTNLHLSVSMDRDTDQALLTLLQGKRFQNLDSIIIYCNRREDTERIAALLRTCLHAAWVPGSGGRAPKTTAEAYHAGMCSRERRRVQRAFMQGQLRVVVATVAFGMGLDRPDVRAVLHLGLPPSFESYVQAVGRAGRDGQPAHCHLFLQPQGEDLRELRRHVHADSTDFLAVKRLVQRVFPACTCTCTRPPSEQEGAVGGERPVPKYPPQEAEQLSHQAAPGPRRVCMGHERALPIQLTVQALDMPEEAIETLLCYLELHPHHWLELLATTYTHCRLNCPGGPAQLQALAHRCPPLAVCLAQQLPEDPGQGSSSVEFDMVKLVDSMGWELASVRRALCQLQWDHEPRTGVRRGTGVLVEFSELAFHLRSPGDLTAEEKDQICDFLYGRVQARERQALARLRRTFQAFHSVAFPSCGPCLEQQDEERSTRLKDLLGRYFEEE
Put plainly: gel-based helicase unwinding assay with purified protein; confirmed by real-time fluorescence helicase assay; LC-MS/MS adduct at Cys1052 in U2OS cells. Format: biochemical.

For `CCCCCCCC/C(=C\CCCCCCCC(=O)O)[N+](=O)[O-]` [OA-NO2], the IC50 was 252 nM.

A word on the IC50: it is the concentration at which inhibition is half-maximal. Higher therefore signals a need for much substance.

Source of the values: paper PMC11975020, “Chemoproteomic analysis reveals RECQL4 as a mediator of nitroalkene-dependent double-strand break repair inhibition in cancer” (Research Square, 2025).
